We go through 20 compounds from ChEMBL document CHEMBL3603807, “Discovery of 2-arylamino-4-(1-methyl-3-isopropylsulfonyl-4-pyrazol-amino)pyrimidines as potent anaplastic lymphoma kinase (ALK) inhibitors” (Bioorg Med Chem Lett, 2015).

The nature of data set [1]: Antiproliferative activity against human KARPAS299 cells assessed as inhibition of cell proliferation incubated for 96 hrs by cell-titer-Glo assay. In kind it is functional, cell-based. The conditions noted are these: KARPAS-299, 96 h.
Data set [2] deals with NCI-H2228. The data set is described as follows: Antiproliferative activity against human NCI-H2228 cells assessed as inhibition of cell proliferation incubated for 96 hrs by cell-titer-Glo assay. Format: functional, cell-based. The conditions noted are these: NCI-H2228, 96 h.
Data set [3] can be described thus: Clearance in rat. In kind it is ADME, organism-based. The conditions noted are these: in vivo.
The target in data set [4] is ALK tyrosine kinase receptor (Homo sapiens, UniProt Q9UM73). The data set is described as follows: Inhibition of wild type human recombinant ALK using TK substrate-biotin incubated for 30 mins by HTRF assay.
For data set [5], the target named is ALK tyrosine kinase receptor (Homo sapiens, UniProt Q9UM73, L1196M). Nature of the data set: Inhibition of ALK L1196M mutant (unknown origin) using TK substrate-biotin incubated for 30 mins by HTRF assay. (Time-resolved FRET reads energy transfer from a long-lived donor to a nearby acceptor.)
Data set [6] has as its system Mus musculus. Nature of the data set: Toxicity in human NCI-H2228 cells xenografted Balb/c mouse EML4-ALK NSCLC model assessed as induction of body weight loss at 30 mg/kg, po qd for 2 weeks. In kind it is organism-based. The conditions noted are these: in vivo, 336 h.
A short description of data set [7]: Half life in Sprague-Dawley rat at 1 mg/kg, iv by LC-MS/MS method. The conditions noted are these: in vivo. In kind it is ADME, organism-based.
Data set [8] can be described thus: AUC (0 to infinity) in Sprague-Dawley rat at 1 mg/kg, iv by LC-MS/MS method. In kind it is ADME, organism-based. Also noted: dose 1 mg/kg, route intravenous, time infinity. The note with it: in vivo.
A short description of data set [9]: Volume of distribution in Sprague-Dawley rat at 1 mg/kg, iv by LC-MS/MS method. In kind it is ADME, organism-based. The conditions noted are these: in vivo.
Data set [10] in a line: Clearance in Sprague-Dawley rat at 1 mg/kg, iv by LC-MS/MS method. Format: ADME, organism-based. The conditions noted are these: in vivo.
A short description of data set [11]: Cmax in Sprague-Dawley rat at 5 mg/kg, po by LC-MS/MS method. In kind it is ADME, organism-based. The arrangement: dose 5 mg/kg, route oral. The note with it: in vivo.
Data set [12] can be described thus: Tmax in Sprague-Dawley rat at 5 mg/kg, po by LC-MS/MS method. In kind it is ADME, organism-based. The note with it: in vivo.
Data set [13] can be described thus: AUC (0 to infinity) in Sprague-Dawley rat at 5 mg/kg, po by LC-MS/MS method. Format: ADME, organism-based. Also noted: dose 5 mg/kg, time infinity, route oral. The conditions noted are these: in vivo.
Data set [14] is described as follows: Oral bioavailability in Sprague-Dawley rat at 5 mg/kg by LC-MS/MS method. In kind it is ADME, organism-based. The conditions noted are these: in vivo.
Data set [15] is described as follows: Half life in beagle dog at 1 mg/kg, iv by LC-MS/MS method. In kind it is ADME, organism-based, Canis lupus familiaris. The note with it: in vivo.
A short description of data set [16]: AUC (0 to infinity) in beagle dog at 1 mg/kg, iv by LC-MS/MS method. In kind it is ADME, organism-based, Canis lupus familiaris. Also noted: dose 1 mg/kg, route intravenous, time infinity. The note with it: in vivo.
A short description of data set [17]: Volume of distribution in beagle dog at 1 mg/kg, iv by LC-MS/MS method. The conditions noted are these: in vivo. In kind it is ADME, organism-based, Canis lupus familiaris.
The nature of data set [18]: Clearance in beagle dog at 1 mg/kg, iv by LC-MS/MS method. Format: ADME, organism-based, Canis lupus familiaris. The note with it: in vivo.
Data set [19] is described as follows: Cmax in beagle dog at 3 mg/kg, po by LC-MS/MS method. In kind it is ADME, organism-based, Canis lupus familiaris. The arrangement: dose 3 mg/kg, route oral. The conditions noted are these: in vivo.
Data set [20] can be described thus: Tmax in beagle dog at 3 mg/kg, po by LC-MS/MS method. Format: ADME, organism-based, Canis lupus familiaris. The conditions noted are these: in vivo.
The nature of data set [21]: AUC (0 to infinity) in beagle dog at 3 mg/kg, po by LC-MS/MS method. In kind it is ADME, organism-based, Canis lupus familiaris. The arrangement: dose 3 mg/kg, route oral, time infinity. The note with it: in vivo.
Data set [22] can be described thus: Oral bioavailability in beagle dog at 3 mg/kg by LC-MS/MS method. The conditions noted are these: in vivo. In kind it is ADME, organism-based, Canis lupus familiaris.

As usually defined, the IC50 is the concentration at which inhibition is half-maximal. A word on the clearance: it is the rate of elimination divided by the concentration. For orientation: half-life means how long it takes for the measured level to halve. Read a high half-life as slow loss. Broadly, the AUC(0-inf) is the area under the concentration-time curve extrapolated to infinity. Lower therefore signals low exposure. What is called Vd is the apparent volume that relates the amount in the body to the concentration in plasma or blood. By Cmax is commonly meant the highest concentration seen after dosing. One may read the Tmax as the time from dosing to the highest level. The bioavailability is dose-corrected exposure relative to a reference, in per cent. Higher therefore signals good availability.

Chain of ALK tyrosine kinase receptor (Homo sapiens, UniProt Q9UM73) (Q9UM73 whole entry): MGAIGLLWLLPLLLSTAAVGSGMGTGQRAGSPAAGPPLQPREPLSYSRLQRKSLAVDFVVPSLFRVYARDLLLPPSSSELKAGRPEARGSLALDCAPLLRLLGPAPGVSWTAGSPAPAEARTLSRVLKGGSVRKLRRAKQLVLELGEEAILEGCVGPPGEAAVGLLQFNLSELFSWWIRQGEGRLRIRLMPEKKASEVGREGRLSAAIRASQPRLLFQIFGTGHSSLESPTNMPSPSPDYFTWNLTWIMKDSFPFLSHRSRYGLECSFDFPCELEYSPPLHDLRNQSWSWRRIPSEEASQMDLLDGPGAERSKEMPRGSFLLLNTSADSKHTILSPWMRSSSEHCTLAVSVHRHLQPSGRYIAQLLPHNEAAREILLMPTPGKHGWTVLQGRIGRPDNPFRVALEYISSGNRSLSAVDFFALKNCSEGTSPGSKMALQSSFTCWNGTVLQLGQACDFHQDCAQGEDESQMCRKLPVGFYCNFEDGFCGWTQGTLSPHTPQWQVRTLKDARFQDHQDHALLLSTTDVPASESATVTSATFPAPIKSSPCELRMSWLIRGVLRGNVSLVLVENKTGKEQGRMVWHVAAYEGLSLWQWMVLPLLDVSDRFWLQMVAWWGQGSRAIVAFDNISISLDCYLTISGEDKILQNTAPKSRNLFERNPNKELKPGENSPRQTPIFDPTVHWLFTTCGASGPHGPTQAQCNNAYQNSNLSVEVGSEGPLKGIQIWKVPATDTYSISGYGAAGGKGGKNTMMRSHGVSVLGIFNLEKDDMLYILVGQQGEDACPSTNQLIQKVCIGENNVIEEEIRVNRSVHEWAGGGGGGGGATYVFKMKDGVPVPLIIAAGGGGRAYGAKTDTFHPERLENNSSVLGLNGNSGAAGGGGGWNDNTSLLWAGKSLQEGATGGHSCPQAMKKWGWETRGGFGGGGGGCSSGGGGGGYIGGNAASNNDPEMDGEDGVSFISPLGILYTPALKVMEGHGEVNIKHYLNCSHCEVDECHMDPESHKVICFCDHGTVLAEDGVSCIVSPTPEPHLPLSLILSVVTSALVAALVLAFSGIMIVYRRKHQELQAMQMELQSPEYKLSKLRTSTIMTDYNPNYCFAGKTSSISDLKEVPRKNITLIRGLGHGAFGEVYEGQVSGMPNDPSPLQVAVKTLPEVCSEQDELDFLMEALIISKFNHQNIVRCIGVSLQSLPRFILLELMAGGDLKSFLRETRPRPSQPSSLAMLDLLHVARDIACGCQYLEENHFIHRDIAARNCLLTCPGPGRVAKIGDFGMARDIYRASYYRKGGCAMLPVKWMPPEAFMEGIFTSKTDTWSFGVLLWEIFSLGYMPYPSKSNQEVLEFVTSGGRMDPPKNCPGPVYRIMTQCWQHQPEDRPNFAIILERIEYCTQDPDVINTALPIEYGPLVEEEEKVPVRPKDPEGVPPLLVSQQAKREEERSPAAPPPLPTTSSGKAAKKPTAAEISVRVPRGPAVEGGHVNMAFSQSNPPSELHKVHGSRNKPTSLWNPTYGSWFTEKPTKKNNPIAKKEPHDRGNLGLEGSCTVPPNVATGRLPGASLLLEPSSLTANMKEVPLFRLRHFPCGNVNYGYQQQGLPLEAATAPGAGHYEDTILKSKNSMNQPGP
Chain of ALK tyrosine kinase receptor (Homo sapiens, UniProt Q9UM73, L1196M) (Q9UM73 19-1620 L1196M limits assumed): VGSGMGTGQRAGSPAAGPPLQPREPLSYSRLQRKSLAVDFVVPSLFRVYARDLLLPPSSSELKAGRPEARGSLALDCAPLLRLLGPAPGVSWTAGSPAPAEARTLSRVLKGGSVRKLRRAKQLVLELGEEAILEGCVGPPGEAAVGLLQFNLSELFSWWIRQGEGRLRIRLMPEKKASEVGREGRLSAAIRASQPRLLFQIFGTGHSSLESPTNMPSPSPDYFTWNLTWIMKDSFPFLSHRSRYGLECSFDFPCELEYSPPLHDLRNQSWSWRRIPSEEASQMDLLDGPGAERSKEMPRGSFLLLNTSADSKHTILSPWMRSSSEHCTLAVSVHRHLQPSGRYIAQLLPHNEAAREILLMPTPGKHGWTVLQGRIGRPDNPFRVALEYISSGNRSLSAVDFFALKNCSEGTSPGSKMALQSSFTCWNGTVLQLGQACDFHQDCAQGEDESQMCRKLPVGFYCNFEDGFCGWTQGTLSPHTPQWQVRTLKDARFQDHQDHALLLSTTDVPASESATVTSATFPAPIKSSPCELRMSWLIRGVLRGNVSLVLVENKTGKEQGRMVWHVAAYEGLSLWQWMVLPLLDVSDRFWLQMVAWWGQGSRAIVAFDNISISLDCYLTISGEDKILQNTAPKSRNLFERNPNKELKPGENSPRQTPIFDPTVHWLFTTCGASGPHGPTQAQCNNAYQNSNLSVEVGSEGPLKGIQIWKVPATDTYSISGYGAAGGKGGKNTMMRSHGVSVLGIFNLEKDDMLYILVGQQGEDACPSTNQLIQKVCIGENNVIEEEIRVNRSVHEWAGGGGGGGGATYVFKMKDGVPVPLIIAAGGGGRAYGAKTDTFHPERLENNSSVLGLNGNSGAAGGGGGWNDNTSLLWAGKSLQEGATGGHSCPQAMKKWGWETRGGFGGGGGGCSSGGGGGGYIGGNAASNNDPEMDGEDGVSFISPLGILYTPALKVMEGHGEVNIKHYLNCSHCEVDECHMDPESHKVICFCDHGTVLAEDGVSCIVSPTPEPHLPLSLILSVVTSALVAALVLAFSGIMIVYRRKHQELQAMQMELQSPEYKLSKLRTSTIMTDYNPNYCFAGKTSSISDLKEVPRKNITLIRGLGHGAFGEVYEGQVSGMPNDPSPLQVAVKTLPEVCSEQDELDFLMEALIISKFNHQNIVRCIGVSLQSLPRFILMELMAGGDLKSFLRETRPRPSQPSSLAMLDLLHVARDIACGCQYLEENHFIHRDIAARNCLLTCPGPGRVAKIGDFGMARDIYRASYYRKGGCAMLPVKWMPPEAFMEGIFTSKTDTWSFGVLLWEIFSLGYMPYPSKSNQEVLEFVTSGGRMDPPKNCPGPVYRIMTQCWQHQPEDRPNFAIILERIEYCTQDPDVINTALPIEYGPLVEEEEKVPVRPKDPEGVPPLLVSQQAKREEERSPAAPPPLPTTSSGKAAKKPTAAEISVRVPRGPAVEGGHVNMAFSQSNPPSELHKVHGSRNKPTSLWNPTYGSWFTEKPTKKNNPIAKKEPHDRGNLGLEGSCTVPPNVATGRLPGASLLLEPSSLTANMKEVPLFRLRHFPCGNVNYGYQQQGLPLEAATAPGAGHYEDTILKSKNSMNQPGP

On to `Cc1cc(Nc2ncc(Cl)c(Nc3cn(C)nc3S(=O)(=O)C(C)C)n2)c(C(F)(F)F)cc1C1CCN(C)CC1`, for which the results for the IC50 in data set [1] and in data set [2] were 74 nM and 1080 nM, respectively.
Turning to `CC(C)S(=O)(=O)c1nn(C)cc1Nc1nc(Nc2ccc(C3CCN(C)CC3)cc2OC2CC2)ncc1Cl`, the half-maximal inhibitory concentration (IC50) in data set [1] was determined as 7 nM; in data set [2], 36 nM. In data set [3], this compound registered a clearance of 79.8 mL/min/kg.
With `Cc1cc(Nc2ncc(Cl)c(Nc3cn(C)nc3S(=O)(=O)C(C)C)n2)c(OC(C)C)cc1C1CNC1`, the results for the IC50 in [1] and in [2] were 60 nM and 288 nM, respectively.
In the same order, the values of `CC(C)S(=O)(=O)c1nn(C)cc1Nc1nc(Nc2cc(C#N)c(C3CCN(C)CC3)cc2OC2CC2)ncc1Cl` are 100 nM and 165 nM.
`CCNC(=O)N1CCC(c2cc(OC3CC3)c(Nc3ncc(Cl)c(Nc4cn(C)nc4S(=O)(=O)C(C)C)n3)cc2C)CC1`: the half-maximal inhibitory concentration (IC50) came to 4 nM in data set [4], 6 nM in data set [5], 20 nM in data set [1] and 82 nM in data set [2].
For `Cc1cc(Nc2ncc(Cl)c(Nc3cn(C)nc3S(=O)(=O)C(C)C)n2)c(C(C)C)cc1C1CCN(C)CC1`, in [2], the IC50 was determined as 660 nM.
For `Cc1cc(Nc2ncc(Cl)c(Nc3cn(C)nc3S(=O)(=O)C(C)C)n2)c(OC(C)C)cc1C1CN(C)C1`, the IC50 in data set [4] worked out at 2 nM; in [5], 5 nM; in data set [1] it was 17 nM; in [2], 270 nM.
Regarding `CC(C)S(=O)(=O)c1nn(C)cc1Nc1nc(Nc2cc(Cl)c(C3CCN(C)CC3)cc2OC2CC2)ncc1Cl`, the IC50 was determined as 15 nM in data set [1] and 103 nM in [2].
In the same order, the values of `Cc1cc(Nc2ncc(Cl)c(Nc3cn(C)nc3S(=O)(=O)C(C)C)n2)c(OC2CC2)cc1C1CCNCC1` are 9 nM and 122 nM.
Take `Cc1cc(Nc2ncc(Cl)c(Nc3cn(C)nc3S(=O)(=O)C(C)C)n2)c(OC(F)(F)F)cc1C1CCN(C)CC1`: the concentration for half-maximal inhibition (IC50) in data set [1] came to 20 nM; in data set [2], 374 nM.
In the case of `Cc1cc(Nc2ncc(Cl)c(Nc3cn(C)nc3S(=O)(=O)C(C)C)n2)c(OC(C)C)cc1C1CCNC1` (stereo not drawn), the IC50 in data set [1] came out at 28 nM; in data set [2] it was 364 nM.
Consider `Cc1cc(Nc2ncc(Cl)c(Nc3cn(C)nc3S(=O)(=O)C(C)C)n2)c(OC2CC2)cc1C1CCCN(C)C1` (stereo not drawn), for which the IC50 in [4] was determined as 3 nM; in data set [5], 7 nM; in data set [1], 3 nM; in [2] it was 32 nM.
For `Cc1cc(Nc2ncc(Cl)c(Nc3cn(C)nc3S(=O)(=O)C(C)C)n2)c(OCC2CC2)cc1C1CCNCC1`, the half-inhibitory concentration (IC50) stood at 43 nM in data set [1] and 262 nM in data set [2].
Turning to `Cc1cc(Nc2ncc(Cl)c(Nc3cn(C)nc3S(=O)(=O)C(C)C)n2)c(OC2CC2)cc1C1CCN(C)CC1`, the clearance in data set [3] was 22.7 mL/min/kg.
As for `Cc1cc(Nc2ncc(Cl)c(Nc3cn(C)nc3S(=O)(=O)C(C)C)n2)c(OC(C)C)cc1C1CCN(C)C1` (stereo not drawn), the IC50 in data set [1] was found to be 11 nM; in data set [2], 131 nM.
Consider `Cc1cc(Nc2ncc(Cl)c(Nc3cn(C)nc3S(=O)(=O)C(C)C)n2)c(OCC2CC2)cc1C1CCN(C)CC1`, for which the figures for the IC50 in [1] and in data set [2] were 74 nM and 226 nM, respectively.
For `Cc1cc(Nc2ncc(Cl)c(Nc3cn(C)nc3S(=O)(=O)C(C)C)n2)c(OC(CF)CF)cc1C1CCN(C)CC1`, in that order: 62 nM and 403 nM.
With `CS(=O)(=O)O.Cc1cc(Nc2ncc(Cl)c(Nc3cn(C)nc3S(=O)(=O)C(C)C)n2)c(OC(C)C)cc1C1CCN(C)CC1`, the Activity entry in data set [6] is given as “Non-toxic”. Moreover, the half-life is 5.1 h in data set [7] and 4.9 h in data set [15]. Besides, the AUC(0-inf) in data set [8] was found to be 988 ng·h/mL; in data set [13], 3120 ng·h/mL; in data set [16] it was 637 ng·h/mL; in [21], 952 ng·h/mL. The values for the distribution volume (Vd) in data set [9] and in [17] were 7.5 L/kg and 11 L/kg, respectively. Moreover, the clearance amounted to 16.9 mL/min/kg in [10] and 26.2 mL/min/kg in [18]. The Cmax in [11] was 199 ng/mL; in [19], 85.8 ng/mL. Besides, the time of peak concentration (Tmax) in [12] was 6.7 h; in data set [20], 2 h. Also, the bioavailability in data set [14] came out at 63.2%; in [22], 49.2%.
In the case of `Cc1cc(Nc2ncc(Cl)c(Nc3cn(C)nc3S(=O)(=O)C(C)C)n2)c(OC(C)C)cc1C1CCNCC1`, the IC50 in data set [4] is 8 nM; in [5] it was 20 nM; in data set [1], 17 nM; in data set [2], 225 nM.
For the compound `Cc1cc(Nc2ncc(Cl)c(Nc3cn(C)nc3S(=O)(=O)C(C)C)n2)c(OC2CC2)cc1C1CCN(C(=O)C(C)C)CC1`, the IC50 in data set [4] worked out at 26 nM; in [5], 29 nM; in data set [2], 149 nM.
